The source of these data is patent US6958358B2, “Inhibitors of cruzipain and other cysteine proteases” (Amura Therapeutics Limited, priority 2001, dated 2005).

Experiment [1] addresses T1, Cruzipain (Trypanosoma cruzi, UniProt P25779).
T1 construct: Wild-type cruzipain, derived from Trypanosoma cruzi Dm28 epimastigotes; tissue Dr. Julio Scharfstein (Instituto de Biofisica Carlos Chagas Filho, Universidade Federal do Rio de Janeiro); host or cells: Trypanosoma cruzi Dm28 epimastigotes
The experiment in a line: Trypanosoma cruzi cruzipain peptidase activity assay. It is filed as biochemical. The settings on record: wild-type cruzipain from T. cruzi Dm28 epimastigotes; pH 6.75; 25±1° C. Here is the method:
(§1) Assay protocols were based on literature precedent (Table1; Barrett, A. J., Rawlings, N. D. and Woessner, J. F., 1998, Handbook of Proteolytic Enzymes, Academic Press, London and references therein) and modified as required to suit local assay protocols. Enzyme was added as required to initiate the reaction and the activity, as judged by the change in fluorescence upon conversion of substrate to product, was monitored over time. All assays were carried out at 25±1° C.
Wild-type cruzipain, derived from Trypanosoma cruzi Dm28 epimastigotes, was obtained from Dr. Julio Scharfstein (Instituto de Biofisica Carlos Chagas Filho, Universidade Federal do Rio de Janeiro, Rio de Janeiro, Brazil). Activity assays were carried out in 100 mM sodium phosphate, pH 6.75 containing 1 mM EDTA and 10 mM L-cysteine using […] enzyme. Ac-Phe-Arg-AMC (KM^app≈12 μM) and D-Val-Leu-Lys-AMC (KM^app≈4 μM) were used as the substrates. Routinely, Ac-FR-AMC was used at a concentration equivalent to KM^app and D-Val-Leu-Lys-AMC was used at a concentration of 25 μM. The rate of conversion of substrate to product was derived from the slope of the increase in fluorescence monitored continuously over time.
The apparent inhibition constant (Ki) for each compound was determined on the basis that inhibition was reversible and occurred by a pure-competitive mechanism. The Ki values were calculated, from the dependence of enzyme activity as a function of inhibitor concentration, by direct regression analysis (Prism v 3.02) using Equation 2 (Cornish-Bowden, A., 1995.). [formula] […]
(§2) In situations where the apparent dissociation constant (Ki^app) approached the enzyme concentrations, the Ki^app values were calculated using a quadratic solution in the form described by Equation 3 (Morrison, J. F. Trends Biochem. Sci., 7, 102-105, 1982; Morrison, J. F. Biochim. Biophys. Acta, 185, 269-286, 1969; Stone, S. R. and Hofsteenge, J. Biochemistry, 25, 4622-4628, 1986). […]

Experiment [2] addresses T2, Human Cathepsin K (Homo sapiens, UniProt P43235).
T2 construct: Dr. Boris Turk (Josef Stefan Institute, Ljubljana, Slovenia), obtained from an academic laboratory, not a commercial vendor
T2 sequence (P43235 115-329): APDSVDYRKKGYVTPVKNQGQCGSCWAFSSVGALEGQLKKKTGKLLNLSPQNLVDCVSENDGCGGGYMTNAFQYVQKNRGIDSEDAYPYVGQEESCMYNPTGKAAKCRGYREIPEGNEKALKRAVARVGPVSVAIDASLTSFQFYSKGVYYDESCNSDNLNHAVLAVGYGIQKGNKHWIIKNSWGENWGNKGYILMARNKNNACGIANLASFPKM
The experiment in a line: Cathepsin peptidase activity assay, human cathepsin K. It is filed as biochemical. The following applies: pH 5.5; Z-Leu-Arg-AMC; 25±1° C. Here is the method:
as §1
(§3) Bovine cathepsin S, human cathepsin L, human cathepsin H and human cathepsin B were obtained from CN Biosciences. Recombinant human cathepsin S, human cathepsin K and human cathepsin X were obtained from Dr. Boris Turk (Josef Stefan Institute, Ljubljana, Slovenia). Unless otherwise stated, all peptidase activity assays were carried out in 10 mM bis-tris-propane (BTP), pH 6.5 containing 1 mM […], 5 mM 2-mercaptoethanol and 1 mM CaCl2. Human cathepsin H activity assays were carried out in 10 mM BTP pH 6.5, 142 mM […], 1 mM CaCl2, 1 mM EDTA, 1 mM DTT, 0.035 mM Zwittergent 3-16. […] The rate of conversion of substrate to product was derived from the slope of the increase in fluorescence monitored continuously over time.
(§4) The apparent inhibition constant (Ki) for each compound was determined on the basis that inhibition was reversible and occurred by a pure-competitive mechanism. The Ki values were calculated, from the dependence of enzyme activity as a function of inhibitor concentration, by direct regression analysis (Prism v 3.02) using Equation 2 (Cornish-Bowden, A., 1995.). […]
as §2

Experiment [3] deals with T3, Human Cathepsin L (Homo sapiens, UniProt P07711).
T3 construct: purchased CN Biosciences
T3 sequence (P07711 114-333): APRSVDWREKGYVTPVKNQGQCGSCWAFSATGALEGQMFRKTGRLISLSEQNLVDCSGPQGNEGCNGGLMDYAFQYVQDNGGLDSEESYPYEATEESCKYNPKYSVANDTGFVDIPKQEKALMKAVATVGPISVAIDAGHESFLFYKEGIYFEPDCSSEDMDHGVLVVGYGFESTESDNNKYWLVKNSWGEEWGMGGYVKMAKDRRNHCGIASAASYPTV
The experiment in a line: Cathepsin peptidase activity assay, human cathepsin L. It is filed as biochemical. The following applies: pH 6.5; Ac-Phe-Arg-AMC; 25±1° C. Here is the method: as §1, §3, §4, §2

The target in experiment [4] is T4, Bovine Cathepsin S (Bos taurus, UniProt P25326).
T4 construct: purchased CN Biosciences
T4 sequence (P25326 115-331): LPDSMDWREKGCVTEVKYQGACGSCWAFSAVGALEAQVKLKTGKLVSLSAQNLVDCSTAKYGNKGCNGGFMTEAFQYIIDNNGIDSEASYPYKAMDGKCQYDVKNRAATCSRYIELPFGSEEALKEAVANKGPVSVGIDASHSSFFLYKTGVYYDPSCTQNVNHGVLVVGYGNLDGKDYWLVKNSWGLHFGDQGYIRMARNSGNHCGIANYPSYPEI
The experiment in a line: Cathepsin peptidase activity assay, bovine cathepsin S. The settings on record: pH 6.5; boc-Val-Leu-Lys-AMC; 25±1° C. It is filed as biochemical. Here is the method:
as §1, §3, §4, §2

Experiment [5] deals with Trypanosoma cruzi. The following applies: added to Trypanosoma cruzi-infected mammalian cell cultures; cited from earlier work.
The test system of experiment [6] is Trypanosoma cruzi infection. The settings on record: cited from earlier work.

pKi: −log10 of the molar value. Where only a bound is given, the exact number is not on record here.

T1 sequence (P25779 123-467): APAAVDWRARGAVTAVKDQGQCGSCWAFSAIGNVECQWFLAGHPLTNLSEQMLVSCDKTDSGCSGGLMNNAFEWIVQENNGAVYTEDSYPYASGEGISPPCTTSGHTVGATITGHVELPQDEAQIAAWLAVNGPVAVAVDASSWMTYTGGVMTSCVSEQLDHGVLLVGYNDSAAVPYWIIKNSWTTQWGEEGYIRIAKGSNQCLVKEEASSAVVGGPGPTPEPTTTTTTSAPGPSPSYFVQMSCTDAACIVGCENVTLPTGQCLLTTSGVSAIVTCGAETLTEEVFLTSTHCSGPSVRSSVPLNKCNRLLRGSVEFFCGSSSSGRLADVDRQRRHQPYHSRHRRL

Usually pKi stands for −log10 of the Ki, conventionally taken in molar units. `CC(C)(C)c1ccc(C(=O)N[C@@H](Cc2ccc(O)cc2)C(=O)N[C@]23CCC[C@H]2OCC3=O)cc1` [Example 1, (3aR, 6aR) 4-tert-Butyl-N-[2-(4-hydroxyphenyl)-1S-(3-oxo-hexahydrocyclopenta[b]furan-3a-ylcarbamoyl)-ethyl]benzamide]: the pKi was above 5.70 in experiment [1], below 4.00 in experiment [2], below 4.70 in experiment [3] and below 4.30 in experiment [4].

Consider `CC(C)C[C@H](NC(=O)c1cc2ccccc2s1)C(=O)N[C@]12CCC[C@H]1OCC2=O` [Example 6, (3aR, 6aR) Benzo[b]thiophene-2-carboxylic acid [3-methyl-1S-(3-oxo-hexahydrocyclopenta[b]furan-3a-ylcarbamoyl)butyl]amide], for which the pKi in experiment [1] is below 4.70; in experiment [2], above 5.70; in experiment [3] it was below 5.00; in experiment [4] it was below 4.60.

As to `O=C(N[C@@H](CC1CCCCC1)C(=O)N[C@]12CCC[C@H]1OCC2=O)c1ccsc1` [Example 7, (3aR, 6aR) Thiophene-3-carboxylic acid [2-cyclohexyl-1S-(3-oxo-hexahydrocyclopenta[b]furan-3a-ylcarbamoyl)ethyl]amide], the pKi was below 4.30 in experiment [1], below 4.30 in experiment [2], below 4.60 in experiment [3] and above 5.70 in experiment [4].

For `CC(NC(=O)C(Cc1ccccc1)NC(=O)OCc1ccccc1)C(=O)CF` (stereo not drawn) [Z-Phe-Ala-FMK], in experiment [5], the “effect on replication and differentiation of the parasite” value was “blocked replication and differentiation of the parasite”.

`O=C(Cn1ccnc1[N+](=O)[O-])NCc1ccccc1` [benznidazole]: in experiment [6], the “cure during the acute phase of infection” value is on record as around 60%.
